Experimental data as given in PubChem BioAssay (NCI).
Where “and” joins values, the source holds several entries; their conditions need not be identical. Equal values may be shown once.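 Results reflect a 48-hour exposure of cells in 96-well plates to compound at five concentrations. GI50 is the concentration that inhibits growth by half. Definition used: TGI = concentration required for complete inhibition of growth.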

What was measured:
Test in all cases: NCI-60 cell line screen, 48 h
NCI-H23 lung = system: NCI-H23 lung
HCC-2998 colon = system: HCC-2998 colon
MCF7 breast = system: MCF7 breast
MDA-N = system: MDA-N
ACHN renal = system: ACHN renal
SF-295 CNS = system: SF-295 CNS
MDA-MB-435 = system: MDA-MB-435
OVCAR-3 ovarian = system: OVCAR-3 ovarian
T-47D breast = system: T-47D breast
MALME-3M melanoma = system: MALME-3M melanoma

Structure (SMILES) | TGI (NCI-H23 lung) | TGI (HCC-2998 colon) | TGI (MCF7 breast) | TGI (MDA-N) | TGI (ACHN renal) | TGI (SF-295 CNS) | TGI (MDA-MB-435) | TGI (OVCAR-3 ovarian) | TGI (T-47D breast) | TGI (MALME-3M melanoma) | GI50 (NCI-H23 lung) | GI50 (HCC-2998 colon) | GI50 (MCF7 breast) | GI50 (ACHN renal) | GI50 (SF-295 CNS) | GI50 (MDA-MB-435) | GI50 (OVCAR-3 ovarian) | GI50 (T-47D breast) | GI50 (MALME-3M melanoma)
Cn1c2ccccc2c(=O)c2c(O)cc3c(c21)C=CC1(CCCCC1)O3 | > 10 µM | > 10 µM | > 10 µM | > 10 µM | > 10 µM | > 10 µM | > 10 µM | > 10 µM | > 10 µM | > 10 µM |  |  |  |  |  |  |  |  | 
CN(C)CCC(=O)/C=C\c1ccccc1 |  |  |  |  | 32.5 µM | 45.5 µM |  | 32.2 µM |  | 32.8 µM |  |  |  |  |  |  |  |  | 
O=c1[nH]c(=O)n(C2CC(O)C(CO)O2)cc1OCc1ccccc1 (centres undefined) | > 100 µM |  | > 100 µM | > 100 µM | > 100 µM |  | > 100 µM | > 100 µM | > 100 µM | > 100 µM |  |  |  |  |  |  |  |  | 
CCOC(=O)C#Cc1ccccc1 | 34.7 µM | 27.8 µM | 75.2 µM | 45 µM | > 100 µM | 30.2 µM | 45.6 µM | 45.7 µM | > 100 µM | 33.2 µM |  |  |  |  |  |  |  |  | 
COc1cc2c(cc1OC)-c1cc3ccccc3c(=O)n1CC2 | > 100 µM | 50.1 µM | > 100 µM | > 100 µM | > 100 µM | 62.1 µM | > 100 µM | 73.3 µM | 81.5 µM | 61.5 µM |  |  |  |  |  |  |  |  | 
NS(=O)(=O)c1cccc(NC(=S)NC(=O)Nc2ccc(Cl)c(Cl)c2)c1 | 34 µM |  | 37.1 µM | 38.2 µM | 48.7 µM | 44.7 µM |  |  | 67.6 µM | 29.4 µM |  |  |  |  |  |  |  |  | 
CCCCn1c(-c2ccc([N+](=O)[O-])cc2)cs/c1=N/N=C1\C(=O)Nc2ccc(Br)cc21 | 33.1 µM | 34.7 µM | 17.7 µM | 45.2 µM | 31.5 µM | 61.2 µM | 37.3 µM | 39.8 µM | 35.1 µM | > 100 µM |  |  |  |  |  |  |  |  | 
COc1ccc(CN2C3CC2CN(c2ccc(-c4cc(OCC(C)(C)O)cn5ncc(C#N)c45)cn2)C3)cn1 | > 100 µM | > 100 µM | > 100 µM |  | > 100 µM | > 100 µM | > 100 µM | > 100 µM | > 100 µM | > 100 µM | 17.8 µM | 93.7 µM | 6.06 µM | 6.86 µM | 5.27 µM | > 100 µM | > 100 µM | 9.02 µM | > 100 µM
CO[C@@H]1O[C@H](C(=O)c2ccccc2)[C@H]2OC(C)(C)O[C@@H]12 | > 100 µM | > 100 µM | > 100 µM | > 100 µM |  | > 100 µM | > 100 µM | > 100 µM | > 100 µM |  |  |  |  |  |  |  |  |  | 
S=c1cc(-c2ccc3c(c2)OCO3)s[nH]1 | > 100 µM |  | > 100 µM | > 100 µM | > 100 µM | > 100 µM | > 100 µM | > 100 µM | > 100 µM | > 100 µM |  |  |  |  |  |  |  |  | 
C[C@H]1SC(c2ccc(Cl)cc2Cl)N(NC(=O)c2ccncc2)C1=O (some centres undefined) | > 100 µM |  | > 100 µM | 57.5 µM | 90.7 µM | > 100 µM | 75.3 µM | > 100 µM | > 100 µM | > 100 µM |  |  |  |  |  |  |  |  | 
COc1nc(C#CC(C)(C)C)nc(OC)n1 | 68.5 µM |  | 89.5 µM | > 100 µM | > 100 µM | > 100 µM | 84.5 µM | 77.3 µM | > 100 µM | 46.9 µM |  |  |  |  |  |  |  |  | 
CCC(C(=O)C(=O)OC)P1(=O)OC(C)(C)CN1C(C)(C)C (centres undefined) | > 100 µM | > 100 µM | > 100 µM |  | > 100 µM | > 100 µM | > 100 µM | > 100 µM | > 100 µM | > 100 µM |  |  |  |  |  |  |  |  | 
CCOC(=O)/C(O)=C1\C(=O)N(C)C(=O)C1c1cccc(OC)c1 (centres undefined) | > 100 µM | > 100 µM | > 100 µM |  |  | > 100 µM |  | > 82.1 µM |  | > 100 µM |  |  |  |  |  |  |  |  | 
CC(=O)OC1CCC2C3CCc4c(C)ccc(OS(=O)(=O)c5ccccc5)c4C3CCC12C (centres undefined) | > 100 µM | > 100 µM | > 100 µM | > 100 µM | > 100 µM | > 100 µM | > 100 µM | 46.7 µM |  | > 100 µM |  |  |  |  |  |  |  |  | 
C1=C\SS/C=C\SS/1 | > 100 µM | > 100 µM | 36.2 µM | > 100 µM | > 100 µM | > 100 µM | > 100 µM |  | > 100 µM |  |  |  |  |  |  |  |  |  | 
O=c1cc(-c2cc(O)c(O)c(-c3c(O)cc4oc(-c5ccc(O)c(O)c5)cc(=O)c4c3O)c2)oc2cc(O)cc(O)c12 | > 25 µM | > 25 µM | > 25 µM | > 25 µM |  | > 25 µM | > 25 µM | > 25 µM | > 25 µM | > 25 µM |  |  |  |  |  |  |  |  | 
N#Cc1nc(NC(=O)c2ccccc2C(=O)O)c(C#N)[nH]1 | > 100 µM |  | > 100 µM | > 100 µM | > 100 µM | > 100 µM | > 100 µM | > 100 µM | > 100 µM | > 100 µM |  |  |  |  |  |  |  |  | 
CC(C(=O)O)C(C)(O)C(=O)O (centres undefined) | > 100 µM | > 100 µM | > 100 µM | > 100 µM |  |  | > 100 µM | > 100 µM | > 100 µM | > 100 µM |  |  |  |  |  |  |  |  | 
CCOP(=O)(/C=C\n1ccc(N)nc1=O)OCC | > 100 µM |  | > 100 µM | > 100 µM | > 100 µM | > 100 µM | > 100 µM | > 100 µM | > 100 µM |  |  |  |  |  |  |  |  |  | 
COc1ccc(CC2COc3cc(O)cc(O)c3C2=O)cc1O (centres undefined) | > 100 µM |  | > 100 µM |  | > 100 µM | 24.1 µM | 3.68 µM | 6.87 µM | > 100 µM | > 100 µM |  |  |  |  |  |  |  |  | 
O=c1cc(N2CCCC2)[nH]c(=O)n1-c1ccccc1 | > 100 µM | > 100 µM | > 100 µM |  | > 100 µM | > 100 µM | > 100 µM |  |  | > 100 µM |  |  |  |  |  |  |  |  | 
OCc1ccc2c(c1)CC1(Cc3ccc(/C=N/O)cc3C1)C2 (centres undefined) | 56.3 µM | 11.5 µM |  |  | > 80.6 µM | > 40.8 µM | 1.51 µM | 17.1 µM | > 100 µM | > 78.8 µM |  |  |  |  |  |  |  |  | 
CCCSc1nc(-c2ccc(OC)cc2)c(C#N)c(=O)n1C1OC(COC(C)=O)C(OC(C)=O)C(OC(C)=O)C1OC(C)=O (centres undefined) | > 100 µM |  |  |  | > 100 µM | > 100 µM and 92.6 µM |  | > 100 µM |  | > 100 µM |  |  |  |  | > 100 µM and 24.3 µM |  | > 100 µM and 35.3 µM |  | > 100 µM and 32.3 µM
